3 h FOB score data for two substances are collected here from the OligoGym collection.

HELM strings list units from the 5' end as sugar, base in round brackets, then linkage (d deoxyribose, r ribose, m 2'-O-methyl, p phosphodiester). Strings are as the collection lists them; they lack the last nucleoside at the 3' end of the tested compound. [moe] = 2'-O-(2-methoxyethyl) (MOE); [sp] = phosphorothioate linkage; [m5C] = 5-methylcytosine

The target of this series is SOD1. Description: mouse, dose not given. The following applies: ASO.

In turn, “RNA1{[moe]([m5C])[sp].[moe]([m5C])[sp].[moe](G)[sp].[moe](T)[sp].[moe]([m5C])[sp].d(G)[sp].d([m5C])[sp].d([m5C])[sp].d([m5C])[sp].d(T)[sp].d(T)[sp].d([m5C])[sp].d(A)[sp].d(G)[sp].d([m5C])[sp].[moe](A)[sp].[moe]([m5C])[sp].[moe](G)[sp].[moe]([m5C])}$$$$ (last 3' nucleoside missing)” came in with a 3 h FOB score of 6.5 score 0-7.

“RNA1{[moe]([m5C])[sp].[moe](A)p.[moe](G)[sp].[moe](G)p.[moe](A)[sp].d(T)[sp].d(A)[sp].d([m5C])[sp].d(A)[sp].d(T)[sp].d(T)[sp].d(T)[sp].d([m5C])[sp].d(T)[sp].d(A)[sp].[moe]([m5C])p.[moe](A)[sp].[moe](G)p.[moe]([m5C])}$$$$ (last 3' nucleoside missing)” displayed a 3 h FOB score of 1.25 score 0-7.
